Assay results reported in paper PMC6830221, “Engineering a surrogate human heteromeric α/β glycine receptor orthosteric site exploiting the structural homology and stability of acetylcholine-binding protein” (IUCrJ, 2019).
Values joined by “and” are separate entries in the source; they are usually repeats but may differ in a detail not shown here. Identical values can stand only once. Like-named read-outs stand apart in the source and are kept apart here.

Key:
[1] = molecular target: T1, variant III, glycine-binding protein (GBP) (Aplysia californica, UniProt Q8WSF8, C207G/C208T/G162E/I135S/P209G/Q74R/S206K/T53F/Y110A)
T1 sequence (Q8WSF8 18-236 C207G/C208T/G162E/I135S/P209G/Q74R/S206K/T53F/Y110A limits assumed): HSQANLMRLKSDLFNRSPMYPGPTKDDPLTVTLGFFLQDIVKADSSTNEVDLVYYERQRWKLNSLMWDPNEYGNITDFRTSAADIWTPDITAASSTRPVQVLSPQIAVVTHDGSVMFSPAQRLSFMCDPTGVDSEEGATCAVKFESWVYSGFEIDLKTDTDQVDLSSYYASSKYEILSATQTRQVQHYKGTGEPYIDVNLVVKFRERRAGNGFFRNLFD
Experimental: (§1) Fluorescence-based screening by differential scanning fluorimetry (DSF; see, for example, Eadsforth et al., 2012[▸]) was used to determine the melting temperature (T m) values. An Mx3005P RT PCR system (Stratagene) was used to monitor protein unfolding by the increase in fluorescence of SYPRO Orange dye (Invitrogen). Assays were carried out in 40 µl volumes with proteins at around 10 µM in 50 mM Tris–HCl, 250 mM NaCl pH 7.5 in 96-well RT PCR plates (ABgene). To investigate the influence of the chemical probe strychnine, 1 µl of strychnine dissolved in DMSO or buffer and then diluted with buffer was incubated with the protein solutions for 5 min prior to 71 cycles of 1°C temperature increments starting at 25°C. After each 1°C increase the sample was excited at 492 nm and fluorescence emission was recorded at 610 nm. The melting temperatures were plotted against a reference control sample of DMSO only. The strychnine concentration varied between […], with a requirement to limit the concentration of DMSO in the final mixture to <2.5%.

AcAChBP variant I = AcAChBP variant I (Aplysia californica, UniProt Q8WSF8, I135S/Q74R/T53F/W164F/Y110A)
AcAChBP variant I, sequence (Q8WSF8 18-236 T53F/Q74R/Y110A/I135S/W164F limits assumed): as the sequence (Q8WSF8 18-236 C207G/C208T/G162E/I135S/P209G/Q74R/S206K/T53F/Y110A limits assumed) above, with E145G, W147F, K189S, G190C, T191C, G192P counted along it
Experimental: (§2) Measurements were recorded using a PerkinElmer LS-55 spectrophotometer with the detector sensitivity set to 750 V. Stock solutions of 10 µg ml^−1 GBP and AcAChBP were prepared, along with two strychnine stock solutions of 100 µM and 1 mM in the same buffer as used for the ITC experiments. The protein samples (2 ml) were excited at a wavelength of 280 nm, and emission was recorded between 300 and 400 nm. For GBP, aliquots of 20 µl of the 1 mM strychnine stock were used, followed by mixing. For AChBP, additions of 2 µl of the 100 µM strychnine stock were made, followed by mixing. Experiments were carried out in triplicate and the percentage change in fluorescence was calculated. Data were analyzed using Microsoft Excel and GraphPad Prism 7.

AcAChBP variant II = AcAChBP variant II (Aplysia californica, UniProt Q8WSF8, G162E/I135S/Q74R/T53F/Y110A)
AcAChBP variant II, sequence (Q8WSF8 18-236 T53F/Q74R/Y110A/I135S/G162E limits assumed): as the sequence (Q8WSF8 18-236 C207G/C208T/G162E/I135S/P209G/Q74R/S206K/T53F/Y110A limits assumed) above, with K189S, G190C, T191C, G192P counted along it
Experimental: as §2

[2] = molecular target: T1, variant III, glycine-binding protein (GBP); assay: biochemical
Experimental: as §2

[3] = molecular target: T1, variant III, glycine-binding protein (GBP); assay: biochemical; remark: listed apart in the source
Experimental: (§3) The interaction of strychnine with AcAChBP and GBP was investigated using ITC. Measurements were carried out with a MicroCal PEAQ-ITC (Malvern Panalytical) at 25°C. The protein solutions (10 µM AcAChBP, 40 µM GBP) were prepared by dialysis against buffer (50 mM Tris–HCl pH 7.5, 250 mM NaCl) at 4°C overnight. Strychnine solutions (concentrations of 100 and 500 µM) were prepared in the same buffer. For the experiments, the initial injection of one 0.4 µl aliquot was followed by 17 × 2 µl injections at 3 min intervals. In each case the injection needle acted as a paddle, stirring the cell contents at 750 rev min^−1, and the reference was set at 10 µcal s^−1. Data were analyzed using the software supplied by the manufacturer to calculate K d, ΔH, −TΔS, ΔG and N, which were derived from a one-binding-site model. Control measurements, buffer into buffer, strychnine into buffer and buffer into protein solutions, were used to determine an appropriate offset adjustment. Examples of the data, averaged parameters and standard errors derived from three titrations are presented in Supplementary Fig. S1.

[4] = molecular target: T1, variant III, glycine-binding protein (GBP); remark: listed apart in the source
AcAChBP [5] = details: ref Hansen et al., cited from earlier work
WT AcAChBP [6] = molecular target: T2, WT AcAChBP (Aplysia californica, UniProt Q8WSF8); assay: Tryptophan fluorescence-quenching assay; format: binding; parameters: made in house; host or cells: baculovirus/Sf9
T2 sequence (Q8WSF8 entry or part of it): as the sequence (Q8WSF8 18-236 C207G/C208T/G162E/I135S/P209G/Q74R/S206K/T53F/Y110A limits assumed) above, with F36T, R57Q, A93Y, S118I, E145G, K189S, G190C, T191C, G192P counted along it
Experimental: as §2

[7] = molecular target: AcAChBP variant I (T53F, Q74R, Y110A, I135S, W164F) (Aplysia californica, UniProt Q8WSF8, I135S/Q74R/T53F/W164F/Y110A); details: Table S1, Variant-I, biphasic melting
AcAChBP variant I (T53F, Q74R, Y110A, I135S, W164F), sequence (Q8WSF8 18-236 T53F/Q74R/Y110A/I135S/W164F limits assumed): as the sequence (Q8WSF8 18-236 C207G/C208T/G162E/I135S/P209G/Q74R/S206K/T53F/Y110A limits assumed) above, with E145G, W147F, K189S, G190C, T191C, G192P counted along it
Experimental: as §1

[8] = molecular target: AcAChBP variant II (T53F, Q74R, Y110A, I135S, G162E) (Aplysia californica, UniProt Q8WSF8, G162E/I135S/Q74R/T53F/Y110A); details: Table S1, Variant-II
AcAChBP variant II (T53F, Q74R, Y110A, I135S, G162E), sequence (Q8WSF8 18-236 T53F/Q74R/Y110A/I135S/G162E limits assumed): as the sequence (Q8WSF8 18-236 C207G/C208T/G162E/I135S/P209G/Q74R/S206K/T53F/Y110A limits assumed) above, with K189S, G190C, T191C, G192P counted along it
Experimental: as §1

WT AcAChBP [9] = molecular target: T2, WT AcAChBP; assay: biochemical
Experimental: as §3

AcAChBP [10] = details: ref Brams et al., 2011; cited from earlier work
[11] = molecular target: recombinant homomeric GlyR-α1; details: ITC, ref Wöhri et al., 2013; cited from earlier work
[12] = molecular target: recombinant homomeric GlyR-α1; details: radioligand saturation assay, ref Wöhri et al., 2013; cited from earlier work
[13] = molecular target: recombinant homomeric GlyR-α3; details: ITC, ref Huang et al., 2015; cited from earlier work
[14] = molecular target: recombinant homomeric GlyR-α3; details: surface plasmon resonance, ref Huang et al., 2015; cited from earlier work
[15] = ref Haynes, 2015; cited from earlier work
[16] = binding to AcAChBP, stopped-flow spectrofluorimetry, 2005

Structure (SMILES): NCC(=O)O [glycine]
- ΔTm ([1]; ligand binding to variant III (GBP), DSF): +2 °C
- ligand binding (tryptophan fluorescence) (AcAChBP variant I): neither did the fluorescence assay register any glycine binding
- ligand binding (tryptophan fluorescence) (AcAChBP variant II): neither did the fluorescence assay register any glycine binding
- association with variant III (fluorescence assay) ([2]; variant III (GBP)): failed to show any binding
- association with variant III (ITC) ([3]; variant III (GBP)): failed to show any binding
- association with variant III (biolayer interferometry) [4]: failed to show any binding

Structure (SMILES): CN1CCC[C@H]1c1cccnc1 [nicotine]
- ligand binding (tryptophan fluorescence) (AcAChBP variant I): Neither variant I nor variant II appeared to be able to bind nicotine
- ligand binding (tryptophan fluorescence) (AcAChBP variant II): Neither variant I nor variant II appeared to be able to bind nicotine
- Kd (AcAChBP [5]; [16]): 250 nM
- Kd (WT AcAChBP [6]; binding to WT AcAChBP, tryptophan fluorescence, three titrations, read-out: Kd): 245 nM

Structure (SMILES): O=C1C[C@@H]2OCC=C3CN4CC[C@]56c7ccccc7N1[C@H]5[C@H]2[C@H]3C[C@H]46 [strychnine]
- ∆Tm (C) + strychnine ([7]; first value): +5 C
- ∆Tm (C) + strychnine ([7]; second value): +25 C
- ∆Tm (C) + strychnine [8]: +5 C
- ∆Tm (C) + strychnine ([1]; Table S1, Variant-III (GBP)): +3 C
- Kd ([2]; Kd, tryptophan fluorescence, GBP, n=3): 26600 nM and 27000 nM
- Kd (WT AcAChBP [9]): 74.1 nM
- Kd [3]: 28800 nM
- Kd (AcAChBP [5]; AcAChBP, stopped-flow spectrofluorimetry assay, 2004): 15 nM
- Ki (AcAChBP [10]): 38 nM
- Kd [11]: 138 nM
- Kd [12]: 52 nM
- Kd [13]: 52 nM
- Kd [14]: 43 nM
- pKa [15]: approximately 8.3
- Kd (WT AcAChBP [6]): 155 nM

Structure (SMILES): CN1[C@@H]2CC[C@H]1C[C@@H](OC(=O)c1c[nH]c3ccccc13)C2 [tropisetron]
- Kd (AcAChBP [5]; [16]): 480 nM
- Kd (WT AcAChBP [6]): 275 nM
